Reference: patent US20080207708A1, “Oxazole and Thiazole Compounds and Their Use in the Treatment of Pge2 Mediated Disorders” (GLAXO GROUP LIMITED, priority 2005, published 2008)
Where a name gives a salt, the structure may show the parent alone.

Molecular target: T1, EP1 receptors (Homo sapiens, UniProt P34995)
T1 sequence (P34995 1-402): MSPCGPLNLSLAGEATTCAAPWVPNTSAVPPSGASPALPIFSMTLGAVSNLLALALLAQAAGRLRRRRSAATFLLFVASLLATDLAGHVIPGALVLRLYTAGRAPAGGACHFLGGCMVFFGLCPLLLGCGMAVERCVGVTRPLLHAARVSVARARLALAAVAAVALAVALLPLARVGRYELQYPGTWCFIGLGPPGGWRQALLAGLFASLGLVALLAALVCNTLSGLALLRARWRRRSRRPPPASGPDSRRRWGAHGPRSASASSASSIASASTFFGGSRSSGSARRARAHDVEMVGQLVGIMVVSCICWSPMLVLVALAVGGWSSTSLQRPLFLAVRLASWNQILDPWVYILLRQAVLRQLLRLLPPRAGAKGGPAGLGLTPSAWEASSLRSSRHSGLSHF
Assay: Binding assay for the human prostanoid EP1 receptor (competition with [3H]-PGE2)
Set-up: expressed in transfected cells; host or cells: CHO-K1 cells, membrane fraction
Conditions: [3H]-PGE2 competition; averages of a number of experiments; read-out: pIC50 value, binding assay for the human prostanoid EP1 receptor (converted)
How it was run: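 Competition against 3 nM (final) tritiated PGE2 at 30° C for 30 min, pH 6 MES assay buffer, using membranes of stably transfected CHO-K1 cells. Filter-retained counts by scintillation; nonlinear curve fitting gives concentration inhibiting 50% of specific binding.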

Row | SMILES | IC50 [nM]
1 | CC(C)COc1ccc(C(F)(F)F)cc1Cc1nc(C(=O)O)cs1 [Example 44, Sodium 2-{[2-[(2-methylpropyl)oxy]-5-(trifluoromethyl)phenyl]methyl}-1,3-thiazole-4-carboxylate] | ≤ 31.6
2 | O=C(O)c1csc(Cc2cc(Br)ccc2OCc2ccc(Br)cc2)n1 [Example 54, Sodium 2-[(5-bromo-2-{[(4-bromophenyl)methyl]oxy}phenyl)methyl]-1,3-thiazole-4-carboxylate] | ≤ 31.6
3 | O=C(O)c1csc(Cc2cc(C(F)(F)F)ccc2OCc2cccc(F)c2F)n1 [Example 34, Sodium 2-{[2-{[(2,3-difluorophenyl)methyl]oxy}-5-(trifluoromethyl)phenyl]methyl}-1,3-thiazole-4-carboxylate] | ≤ 31.6
4 | O=C(O)c1csc(Cc2cc(C(F)(F)F)ccc2OCC2CCCCC2)n1 [Example 42, Sodium 2-{[2-[(cyclohexylmethyl)oxy]-5-(trifluoromethyl)phenyl]methyl}-1,3-thiazole-4-carboxylate] | ≤ 1000
5 | NC(=O)c1nc(Cc2cc(Cl)ccc2OCc2c(F)ccc(F)c2F)cs1 [Example 7, 4-[(5-chloro-2-{[(2,3,6-trifluorophenyl)methyl]-oxy}phenyl)methyl]-1,3-thiazole-2-carboxamide] | > 1000
6 | O=C(O)c1csc(Cc2cc(Br)ccc2OCc2c(F)ccc(F)c2F)n1 [Example 59, Sodium 2-[(5-bromo-2-{[(2,3,6-trifluorophenyl)methyl]oxy}phenyl)methyl]-1,3-thiazole-4-carboxylate] | ≤ 31.6
7 | O=C(O)Cc1csc(-c2cc(Cl)ccc2OCc2ccccc2)n1 [Example 73, Sodium [2-{5-chloro-2-[(phenylmethyl)oxy]phenyl}-1,3-thiazol-4-yl)acetate] | ≤ 31.6
8 | O=C(O)Cc1csc(-c2cc(Cl)ccc2OCc2ccc(Cl)cc2F)n1 [Example 65, Sodium [2-(5-chloro-2-{[(4-chloro-2-fluorophenyl)methyl]oxy}phenyl)-1,3-thiazol-4-yl]acetate] | ≤ 31.6
9 | O=C(O)Cc1csc(-c2cc(Cl)ccc2OCc2ccc(F)cc2)n1 [Example 72, Sodium [2-(5-chloro-2-{[(4-fluorophenyl)methyl]oxy}phenyl)-1,3-thiazol-4-yl]acetate] | ≤ 1000
10 | O=C(O)c1csc(Nc2cc(Cl)ccc2OCc2ccccc2)n1 [Example 75, Sodium 2-({5-chloro-2-[(phenylmethyl)oxy]phenyl}amino)-1,3-thiazole-4-carboxylate] | ≤ 1000
11 | O=C(O)Cc1csc(-c2cc(Cl)ccc2OCc2cc(F)c(F)cc2F)n1 [Example 68, Sodium [2-(5-chloro-2-{[(2,4,5-trifluorophenyl)methyl]oxy}phenyl)-1,3-thiazol-4-yl]acetate] | ≤ 1000
12 | O=C(O)c1csc(Cc2cc(Cl)ccc2OCc2ccc(F)c(F)c2F)n1 [Example 20, Sodium 2-[(5-chloro-2-{[(2,3,4-trifluorophenyl)methyl]oxy}phenyl)methyl]-1,3-thiazole-4-carboxylate] | ≤ 1000
13 | O=C(O)c1nc(Cc2cc(Cl)ccc2OCc2ccccc2)cs1 [Example 76, Sodium 4-({5-chloro-2-[(phenylmethyl)oxy]phenyl}methyl)-1,3-thiazole-2-carboxylate] | ≤ 31.6
14 | CC(C)COc1ccc(Cl)cc1Cc1nc(C(=O)O)cs1 [Example 23, Sodium 2-({5-chloro-2-[(2-methylpropyl)oxy}phenyl}methyl)-1,3-thiazole-4-carboxylate] | ≤ 31.6
15 | O=C(O)c1csc(Cc2cc(Cl)ccc2OCc2ccc(Cl)cc2Cl)n1 [Example 17, 2-[(5-chloro-2-{[(2,4-dichlorophenyl)methyl]oxy}phenyl)methyl]-1,3-thiazole-4-carboxylicacid] | ≤ 31.6
16 | O=C(O)c1csc(Cc2cc(C(F)(F)F)ccc2OCc2ccccc2F)n1 [Example 29, Sodium 2-{[2-{[(2-fluorophenyl)methyl]oxy}-5-(trifluoromethyl)phenyl]methyl}-1,3-thiazole-4-carboxylate] | ≤ 31.6
17 | O=C(O)c1csc(Cc2cc(Br)ccc2OCc2cc(F)c(F)cc2F)n1 [Example 58, Sodium 2-[(5-bromo-2-{[(2,4,5-trifluorophenyl)methyl]oxy}phenyl)methyl]-1,3-thiazole-4-carboxylate] | ≤ 31.6
18 | O=C(O)c1csc(Cc2cc(Cl)ccc2OCc2ccc(F)cc2Cl)n1 [Example 14, 2-[(5-chloro-2-{[(2-chloro-4-fluorophenyl)methyl]oxy}phenyl)methyl]-1,3-thiazole-4-carboxylicacid] | ≤ 31.6
19 | O=C(O)c1csc(Cc2cc(Br)ccc2OCc2ccc(F)cc2Cl)n1 [Example 61, Sodium 2-[(5-bromo-2-{[(2-chloro-4-fluorophenyl)methyl]oxy}phenyl)methyl]-1,3-thiazole-4-carboxylate] | ≤ 31.6
20 | O=C(O)c1csc(Cc2cc(C(F)(F)F)ccc2OCc2ccccc2)n1 [Example 24, Sodium 2-{[2-[(phenylmethyl)oxy]-5-(trifluoromethyl)phenyl]methyl}-1,3-thiazole-4-carboxylate] | ≤ 31.6
21 | O=C(O)c1csc(Cc2cc(C(F)(F)F)ccc2OCc2cc(F)c(F)cc2F)n1 [Example 36, Sodium 2-[(5-(trifluoromethyl)-2-{[(2,4,5-trifluorphenyl)methyl]oxy}phenyl)methyl]-1,3-thiazole-4-carboxylate] | ≤ 31.6
22 | O=C(O)c1csc(Cc2cc(Cl)ccc2OCc2c(F)ccc(F)c2F)n1 [Example 19, Sodium 2-[(5-chloro-2-{[(2,3,6-trifluorophenyl)methyl]oxy}phenyl)methyl]-1,3-thiazole-4-carboxylate] | ≤ 1000

Continued, values first:

Row | IC50 [nM] | SMILES
23 | ≤ 31.6 | CC(C)COc1ccc(Cl)cc1Cc1nc(-c2nc3ccc(CN4CCCC4)cc3[nH]2)cs1 [Example 123, 2-[2-({5-Chloro-2-[(2-methylpropyl)oxy]phenyl}-methyl)-1,3-thiazol-4-yl]-5-(1-pyrrolidinylmethyl)-1H-benzimidazole hydrochloride]
24 | ≤ 1000 | CC(C)COc1ccc(Cl)cc1C(F)(F)c1nc(C(=O)O)cs1 [Example 82, Sodium 2-[{5-chloro-2-[(2-methylpropyl)oxy]phenyl}(difluoro)methyl]-1,3-thiazole-4-carboxylate]
25 | ≤ 1000 | Clc1ccc(OCc2ccccc2)c(Cc2nc(-c3nnc[nH]3)cs2)c1 [Example 156, 3-[2-({5-Chloro-2-[(phenylmethyl)oxy]phenyl}methyl)-1,3-thiazol-4-yl]-1H-1,2,4-triazole]
26 | ≤ 31.6 | O=C(O)c1coc(Cc2cc(Cl)ccc2OCc2ccccc2)n1 [Example 78, Sodium 2-({5-chloro-2-[(phenylmethyl)oxy]phenyl}methyl)-1,3-oxazole-4-carboxylate]
27 | ≤ 31.6 | CC(C)COc1ccc(Cl)cc1Cc1nc(-c2nc3ccccc3[nH]2)co1 [Example 162, 2-[2-({5-Chloro-2-[(2-methylpropyl)oxy]phenyl}methyl)-1,3-oxazol-4-yl]-1H-benzimidazole hydrochloride]
28 | ≤ 31.6 | Clc1ccc(OCc2ccccc2)c(Cc2nc(-c3nnn[nH]3)cs2)c1 [Example 109, 5-[2-({5-Chloro-2-[(phenylmethyl)oxy]phenyl}methyl)-1,3-thiazol-4-yl]-1H-tetrazole]
29 | ≤ 31.6 | O=C(O)c1nc(Cc2cc(Cl)ccc2OCc2ccc(F)cc2Cl)cs1 [Example 87, Sodium 4-[(5-chloro-2-{[(2-chloro-4-fluorophenyl)methyl]oxy}-phenyl)methyl]-1,3-thiazole-2-carboxylate]
30 | ≤ 31.6 | O=C(O)c1nc(Cc2cc(Cl)ccc2OCc2cc(F)c(F)cc2F)cs1 [Example 89, Sodium 4-[(5-chloro-2-{[(2,4,5-trifluorophenyl)methyl]-oxy}phenyl)methyl]-1,3-thiazole-2-carboxylate]
31 | ≤ 1000 | NC(=O)c1csc(Cc2cc(Cl)ccc2OCc2ccccc2)n1 [Example 90, 2-({5-Chloro-2-[(phenylmethyl)oxy]phenyl}methyl)-1,3-thiazole-4-carboxamide]
